17 compounds from US20100158992A1, “PIPERAZINE-SUBSTITUTED PYRIDAZINONE DERIVATIVES USEFUL AS GLUCAN SYNTHASE INHIBITORS” (Schering Corporation, priority 2007, published 2010) can be followed below.

What all share (type): cell-based
Test [1] has as its system Aspergillus fumigatus (ND158). The experiment in a line: Microbroth susceptibility testing, filamentous fungi (MEC). Conditions: strain ND158, minimum effective concentration. On the procedure:
Microbroth Susceptibility Testing Methods Filamentous fungi susceptibility testing procedure follows the NCCLS document M38-A (Reference Method for Broth Dilution Antifungal Susceptibility Testing of Filamentous Fungi; Approved Standard (ISBN 1-56238-470-8). NCCLS, 940 West Valley Road, Suite 1400 Wayne, Pa. 19087-1898 USA, 2002) with the following modifications: 1. The final test volume was 100 μl and not 200 μl as stipulated. 2. The end point used to assess the in vitro activity of glucan synthase inhibitors may require microscopic evaluation of cell morphology in the test wells (Kurtz et al., Antimicrobial Agents and Chemotherapy, 38, 1480-1489, 1994; […] et al., Antimicrobial Agents and Chemotherapy, 45, 327-330, 2001).
A general note: In broth dilution the organism is exposed to a series of concentrations in liquid medium.

Test [2] has as its system Candida albicans (C693). As to the kind of experiment: Microbroth susceptibility testing, yeast (MIC). Conditions: strain C693. The protocol:
(§1) Microbroth Susceptibility Testing Methods
(§2) Yeast susceptibility testing procedure followed the NCCLS document M27-A2 (Reference Method for Broth Dilution Antifungal Susceptibility Testing of Yeasts; Approved Standard-Second Edition (ISBN 1-56238-469-4). NCCLS, 940 West Valley Road, Suite 1400 Wayne, Pa. 19087-1898 USA, 2002) with the following modifications:
(§3) 1. The final test volume was 100 μl and not 200 μl as stipulated. 2. For testing Saccharomyces cerevisiae strain PM503 YPD was used in place of RPMI 1640 broth.

Test [3] has as its system Candida glabrata (C624). The experiment in a line: Microbroth susceptibility testing, yeast (MIC). Conditions: Nakaseomyces glabratus; strain C624. On the procedure:
as §1, §2, §3

For test [4], the system named is Saccharomyces cerevisiae (C51). The experiment in a line: Microbroth susceptibility testing, yeast (MIC). The note with it: read-out: MIC Saccharomyces cerevisiae (C51). On the procedure: as §1, §2, §3
In test [5] the test system is Candida albicans (C697). The experiment in a line: Microbroth susceptibility testing, yeast (MIC). The note with it: strain C697. The protocol: as §1, §2, §3

Converted amounts (≈) assume the structure as drawn.

What is called minimal effective concentration is the smallest amount tested that counted as effective. Lower therefore signals an effect from little substance. A word on the MIC: it is the least concentration at which growth counts as inhibited. In test [1], `O=c1c(SCc2ccccc2)c(N2CCN(Cc3cc(O)cc(O)c3)CC2)cnn1-c1ccccc1` [compound 1] displayed a minimal effective concentration of 5 to 50 µg/mL. The MIC is 5 to 50 µg/mL (≈ 9.99 to 99.9 µM) in test [2], 1 to 5 µg/mL (≈ 2 to 9.99 µM) in test [3], 5 to 50 µg/mL (≈ 9.99 to 99.9 µM) in test [4] and 5 to 50 µg/mL (≈ 9.99 to 99.9 µM) in test [5].
For the compound `Cc1cccc(CN2CCN(c3cnn(-c4ccccc4)c(=O)c3SC(C)C)CC2)c1` [compound 9], in test [1], the minimal effective concentration was in the range of 5 to 50 µg/mL. Further, the MIC was in the range of 5 to 50 µg/mL (≈ 11.5 to 115 µM) in test [2], 0.5 to 1 µg/mL (≈ 1.15 to 2.3 µM) in test [3], 0.5 to 1 µg/mL (≈ 1.15 to 2.3 µM) in test [4] and 5 to 50 µg/mL (≈ 11.5 to 115 µM) in test [5].
In test [1], `Cc1nc[nH]c1CN1CCN(c2cnn(-c3ccccc3)c(=O)c2SCc2ccccc2)CC1` [compound 17] registered a minimal effective concentration of 5 to 50 µg/mL. In addition, the MIC in test [2], in test [3], in test [4] and in test [5] was 5 to 50 µg/mL (≈ 10.6 to 106 µM) throughout.
In test [1], `COc1ccc(Sc2c(N3CCN(S(=O)(=O)c4cccs4)CC3)cnn(-c3ccccc3)c2=O)cc1` [compound 66] showed a minimal effective concentration of 1 to 5 µg/mL. In addition, the minimal inhibitory concentration (MIC) in test [2] was 5 to 50 µg/mL (≈ 9.25 to 92.5 µM); in test [3], 0.5 to 1 µg/mL (≈ 0.925 to 1.85 µM); in test [4] it was 1 to 5 µg/mL (≈ 1.85 to 9.25 µM); in test [5] it was 5 to 50 µg/mL (≈ 9.25 to 92.5 µM).
In test [1], `O=c1c(SCc2ccccc2)c(N2CCN(S(=O)(=O)c3ccccc3[N+](=O)[O-])CC2)cnn1-c1ccccc1` [compound 67] had a minimal effective concentration of 5 to 50 µg/mL. The minimal inhibitory concentration (MIC) in test [2] lay within 5 to 50 µg/mL (≈ 8.87 to 88.7 µM); in test [3] it was 1 to 5 µg/mL (≈ 1.77 to 8.87 µM); in test [4] it was 5 to 50 µg/mL (≈ 8.87 to 88.7 µM); in test [5], 5 to 50 µg/mL (≈ 8.87 to 88.7 µM).
`COc1ccc(Sc2c(N3CCN(S(=O)(=O)c4ccccc4)CC3)cnn(-c3ccccc3)c2=O)cc1` [compound 74]: the minimal effective concentration in test [1] was 1 to 5 µg/mL. For the same compound, the MIC was 5 to 50 µg/mL (≈ 9.35 to 93.5 µM) in test [2], 0.5 to 1 µg/mL (≈ 0.935 to 1.87 µM) in test [3], 1 to 5 µg/mL (≈ 1.87 to 9.35 µM) in test [4] and 1 to 5 µg/mL (≈ 1.87 to 9.35 µM) in test [5].
Consider `CCOC(=O)C1CCCN(c2c(N3CCN(C(=O)c4c[nH]c5ccccc45)CC3)cnn(-c3ccccc3)c2=O)C1` (stereo not shown) [compound 114], for which the minimal effective concentration in test [1] was in the range of 5 to 50 µg/mL. In addition, the MIC in test [2], in test [3], in test [4] and in test [5] was 5 to 50 µg/mL (≈ 9.01 to 90.1 µM) in each case.
Turning to `CCOC(=O)C1CCCN(c2c(N3CCN(C(=O)CSc4nccc(C)n4)CC3)cnn(-c3ccccc3)c2=O)C1` (stereo not shown) [compound 130], the minimal effective concentration in test [1] lay in the range of 5 to 50 µg/mL. Moreover, the minimum inhibitory concentration (MIC) in test [2] lay in the range of 5 to 50 µg/mL (≈ 8.65 to 86.5 µM); in test [3] it was 1 to 5 µg/mL (≈ 1.73 to 8.65 µM); in test [4] it was 5 to 50 µg/mL (≈ 8.65 to 86.5 µM); in test [5] it was 5 to 50 µg/mL (≈ 8.65 to 86.5 µM).
Compound `CCOC(=O)C1CCCN(c2c(N3CCN(C(=O)c4ccc5[nH]cnc5c4)CC3)cnn(-c3ccccc3)c2=O)C1` (stereo not shown) [compound 136] registered a minimal effective concentration in test [1] of 5 to 50 µg/mL. Also, the MIC in test [2], in test [3], in test [4] and in test [5] was 5 to 50 µg/mL (≈ 9 to 90 µM) each time.
For `CCOC(=O)C1CCCN(c2c(N3CCN(S(=O)(=O)c4c(F)cccc4F)CC3)cnn(-c3ccccc3)c2=O)C1` (stereo not shown) [compound 236], the minimal effective concentration in test [1] fell in the range of 1 to 5 µg/mL. The MIC is 1 to 5 µg/mL (≈ 1.7 to 8.51 µM) in test [2], 0.5 to 1 µg/mL (≈ 0.851 to 1.7 µM) in test [3], 1 to 5 µg/mL (≈ 1.7 to 8.51 µM) in test [4] and 1 to 5 µg/mL (≈ 1.7 to 8.51 µM) in test [5].
As to `O=c1c(N2CCOCC2)c(N2CCN(S(=O)(=O)Cc3ccccc3)CC2)cnn1-c1ccccc1` [compound 253], in test [1], the minimal effective concentration lay within 5 to 50 µg/mL. Further, the MIC in test [2] lay within 5 to 50 µg/mL (≈ 10.1 to 101 µM); in test [3], 1 to 5 µg/mL (≈ 2.02 to 10.1 µM); in test [4], 1 to 5 µg/mL (≈ 2.02 to 10.1 µM); in test [5], 1 to 5 µg/mL (≈ 2.02 to 10.1 µM).
For the compound `CC(C)OCCCNc1c(N2CCN(S(=O)(=O)Cc3ccccc3)CC2)cnn(-c2ccccc2)c1=O` [compound 254], the minimal effective concentration in test [1] fell in the range of 5 to 50 µg/mL. The MIC in test [2] fell in the range of 5 to 50 µg/mL (≈ 9.51 to 95.1 µM); in test [3] it was 1 to 5 µg/mL (≈ 1.9 to 9.51 µM); in test [4], 1 to 5 µg/mL (≈ 1.9 to 9.51 µM); in test [5], 5 to 50 µg/mL (≈ 9.51 to 95.1 µM).
Take `COc1ccc(CCOc2c(N3CCN(Cc4ccccc4O)CC3)cnn(-c3ccccc3)c2=O)cc1` [compound 316]: the minimal effective concentration in test [1] fell in the range of 1 to 5 µg/mL. In addition, the MIC lay within 5 to 50 µg/mL (≈ 9.75 to 97.5 µM) in test [2], 5 to 50 µg/mL (≈ 9.75 to 97.5 µM) in test [3], 0.5 to 1 µg/mL (≈ 0.975 to 1.95 µM) in test [4] and 5 to 50 µg/mL (≈ 9.75 to 97.5 µM) in test [5].
Regarding `O=c1c(OCc2ccccc2)c(N2CCN(Cc3c(Cl)cccc3Cl)CC2)cnn1-c1ccccc1` [compound 339], the minimal effective concentration in test [1] lay in the range of 1 to 5 µg/mL. For the same compound, the minimum inhibitory concentration (MIC) was 5 to 50 µg/mL (≈ 9.59 to 95.9 µM) in test [2], 1 to 5 µg/mL (≈ 1.92 to 9.59 µM) in test [3], 1 to 5 µg/mL (≈ 1.92 to 9.59 µM) in test [4] and 1 to 5 µg/mL (≈ 1.92 to 9.59 µM) in test [5].
In test [1], `O=c1c(OC2Cc3ccccc3C2)c(N2CCN(Cc3ccoc3)CC2)cnn1-c1ccccc1` [compound 343] registered a minimal effective concentration of 0.5 to 1 µg/mL. The minimum inhibitory concentration (MIC) in test [2] is 5 to 50 µg/mL (≈ 10.7 to 107 µM); in test [3], 1 to 5 µg/mL (≈ 2.13 to 10.7 µM); in test [4], < 0.5 µg/mL; in test [5], 1 to 5 µg/mL (≈ 2.13 to 10.7 µM).
Regarding `O=c1c(OCCC2CCCCC2)c(N2CCN(Cc3cccc(O)c3)CC2)cnn1-c1ccccc1` [compound 373], in test [1], the minimal effective concentration is 5 to 50 µg/mL. In addition, the MIC in test [2] was 5 to 50 µg/mL (≈ 10.2 to 102 µM); in test [3], 1 to 5 µg/mL (≈ 2.05 to 10.2 µM); in test [4] it was 0.5 to 1 µg/mL (≈ 1.02 to 2.05 µM); in test [5] it was 1 to 5 µg/mL (≈ 2.05 to 10.2 µM).
`O=c1c(OC2Cc3ccccc3C2)c(N2CCN(Cc3cccs3)CC2)cnn1-c1ccccc1` [compound 428]: in test [1], the minimal effective concentration lay in the range of 1 to 5 µg/mL. In addition, the minimum inhibitory concentration (MIC) in test [2] was 5 to 50 µg/mL (≈ 10.3 to 103 µM); in test [3] it was 5 to 50 µg/mL (≈ 10.3 to 103 µM); in test [4], 0.5 to 1 µg/mL (≈ 1.03 to 2.06 µM); in test [5], 1 to 5 µg/mL (≈ 2.06 to 10.3 µM).
